Laboratory results from ChEMBL document CHEMBL6083209, “Pyridazinone-based derivatives as anticancer agents endowed with anti-microbial activity: molecular design, synthesis, and biological investigation” (RSC Med Chem, 2024).
≈ marks a conversion by molar mass, not a printed value.

Columns and labels:
[1] = test system: Staphylococcus aureus; test: Antimicrobial activity against Staphylococcus aureus; assay type: functional
[2] = target: Vascular endothelial growth factor receptor 2 (Homo sapiens, UniProt P35968); test: Inhibition of VEGFR2 (unknown origin)
[3] = test system: Escherichia coli; test: Antimicrobial activity against Escherichia coli ATCC 25922 by broth microdilution method
[4] = test system: Candida albicans; test: Antimicrobial activity against Candida albicans ATCC 10231 by broth microdilution method
[5] = test system: Staphylococcus aureus; test: Antimicrobial activity against Staphylococcus aureus NCTC 8325 incubated for 45 mins; assay type: functional; conditions: NCTC 8325, 0.75 h
[6] = test system: Staphylococcus aureus; test: Antimicrobial activity against Staphylococcus aureus ATCC 29213 by broth microdilution method
[7] = test system: Staphylococcus aureus; test: Antimicrobial activity against Staphylococcus aureus ATCC 29213; assay type: functional

Sequence of Vascular endothelial growth factor receptor 2 (P35968 whole entry): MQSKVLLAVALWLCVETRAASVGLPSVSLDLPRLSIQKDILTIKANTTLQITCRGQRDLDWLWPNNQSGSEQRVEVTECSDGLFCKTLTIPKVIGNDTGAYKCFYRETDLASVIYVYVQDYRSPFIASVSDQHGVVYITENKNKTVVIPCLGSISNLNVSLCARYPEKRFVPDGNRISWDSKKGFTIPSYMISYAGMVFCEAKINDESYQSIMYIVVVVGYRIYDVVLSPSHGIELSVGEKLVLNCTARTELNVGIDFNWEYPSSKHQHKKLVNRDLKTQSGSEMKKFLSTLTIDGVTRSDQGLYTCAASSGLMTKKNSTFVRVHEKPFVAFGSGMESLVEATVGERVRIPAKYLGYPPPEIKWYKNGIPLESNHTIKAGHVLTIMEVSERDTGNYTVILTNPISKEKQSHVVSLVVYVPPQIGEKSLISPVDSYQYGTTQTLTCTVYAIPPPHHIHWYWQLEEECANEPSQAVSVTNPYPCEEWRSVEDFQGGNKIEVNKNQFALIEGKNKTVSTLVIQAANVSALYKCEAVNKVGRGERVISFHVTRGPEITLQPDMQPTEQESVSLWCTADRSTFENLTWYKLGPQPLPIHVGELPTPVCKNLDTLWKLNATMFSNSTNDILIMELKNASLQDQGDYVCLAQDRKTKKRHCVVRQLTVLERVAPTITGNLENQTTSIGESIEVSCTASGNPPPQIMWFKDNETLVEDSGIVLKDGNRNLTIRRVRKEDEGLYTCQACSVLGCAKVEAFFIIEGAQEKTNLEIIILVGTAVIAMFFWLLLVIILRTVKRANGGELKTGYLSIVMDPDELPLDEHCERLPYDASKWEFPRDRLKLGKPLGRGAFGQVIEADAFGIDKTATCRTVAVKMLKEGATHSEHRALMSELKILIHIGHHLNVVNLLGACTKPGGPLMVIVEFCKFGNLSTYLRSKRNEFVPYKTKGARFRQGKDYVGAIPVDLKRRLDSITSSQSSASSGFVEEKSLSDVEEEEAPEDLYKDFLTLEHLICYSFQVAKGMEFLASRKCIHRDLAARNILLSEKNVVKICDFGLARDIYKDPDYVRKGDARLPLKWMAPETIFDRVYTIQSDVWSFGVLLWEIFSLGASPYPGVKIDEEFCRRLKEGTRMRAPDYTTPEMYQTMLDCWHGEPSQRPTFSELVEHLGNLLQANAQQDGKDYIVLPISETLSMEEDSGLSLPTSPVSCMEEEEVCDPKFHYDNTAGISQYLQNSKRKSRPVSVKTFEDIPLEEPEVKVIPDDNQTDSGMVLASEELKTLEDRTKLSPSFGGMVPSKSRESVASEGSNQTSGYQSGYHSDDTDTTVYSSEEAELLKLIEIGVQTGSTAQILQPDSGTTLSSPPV

O=C(Nc1ccc(-c2ccc(=O)[nH]n2)cc1)Nc1ccc(Cl)c(C(F)(F)F)c1
MIC [1]: > 128 µg/mL | IC50 [2]: 1800 nM

CNC(=O)c1cc(Oc2ccc(NC(=O)Nc3ccc(Cl)c(C(F)(F)F)c3)cc2)ccn1 [SORAFENIB]
MIC [3]: 1 µg/mL (≈ 2.15 µM) | MIC [4]: > 128 µg/mL | MIC [5]: 3 µg/mL (≈ 6.45 µM) | MIC [6]: 4 µg/mL (≈ 8.61 µM)

O=C(Nc1ccc(Cl)c(C(F)(F)F)c1)Nc1ccc(Cl)c(C(F)(F)F)c1
MIC [1]: 0.25 µg/mL (≈ 0.599 µM) | IC50 [2]: 1.13 nM

O=C(Nc1ccc(Cl)cc1)Nc1ccc(Cl)c(Cl)c1 [TRICLOCARBAN]
MIC [7]: 16 µg/mL (≈ 50.7 µM)
